ChEMBL document CHEMBL5131482, “Synthesis and SAR of novel GPR39 agonists and positive allosteric modulators” (Bioorg Med Chem Lett, 2022)
The source made the active and inactive calls. The calls are words filed in the database; no cut-off is given here.

Tests used:
[1] = biological target: T1, G-protein coupled receptor 39 (Homo sapiens) (UniProt O43194); test: Positive allosteric activity at human GPR39 receptor expressed in CHO cells assessed as increase in zn2+ induced ca2+ flux relative to Zn2+; assay type: cell-based; conditions: filed as positive allosteric modulator
T1 sequence (whole entry): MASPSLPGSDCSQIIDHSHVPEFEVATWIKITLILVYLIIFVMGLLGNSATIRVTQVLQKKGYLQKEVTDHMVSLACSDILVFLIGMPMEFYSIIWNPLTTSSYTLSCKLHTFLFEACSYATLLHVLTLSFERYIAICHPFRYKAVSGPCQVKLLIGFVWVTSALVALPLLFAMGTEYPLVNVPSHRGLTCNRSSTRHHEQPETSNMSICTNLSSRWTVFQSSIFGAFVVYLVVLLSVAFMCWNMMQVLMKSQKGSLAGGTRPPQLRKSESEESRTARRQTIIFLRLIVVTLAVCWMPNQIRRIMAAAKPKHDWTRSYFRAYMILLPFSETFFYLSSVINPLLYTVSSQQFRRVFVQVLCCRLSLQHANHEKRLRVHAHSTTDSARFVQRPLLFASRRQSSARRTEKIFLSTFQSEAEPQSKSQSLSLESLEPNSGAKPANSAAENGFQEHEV

[2] = biological target: T2, G-protein coupled receptor 39 (Homo sapiens, UniProt O43194); test: Positive allosteric activity at human GPR39 receptor expressed in CHO cells assessed as increase in zn2+ induced ca2+ flux; assay type: cell-based
T2 sequence (O43194 whole entry): T1 sequence (whole entry)

[3] = biological target: T2, G-protein coupled receptor 39; test: Agonist activity at human GPR39 receptor expressed in CHO cells assessed as increase in ca2+ flux; assay type: functional, cell-based
[4] = biological target: T1, G-protein coupled receptor 39 (Homo sapiens); test: Agonist activity at human GPR39 receptor expressed in CHO cells assessed as increase in ca2+ flux relative to Zn2+; assay type: functional, cell-based
SH-SY5Y [5] = test: Neuroprotective activity against 6-OHDA-induced PD model of human SH-SY5Y cells assessed as increase in cell viability; assay type: functional, cell-based
SH-SY5Y [6] = test: Cytotoxicity in human SH-SY5Y cells assessed as decrease in cell viability at 10 uM; assay type: toxicity, cell-based
[7] = filed as positive allosteric modulator

| SMILES | EC50 [2] [nM] | EC50 [3] [nM] | Emax [4, 7] [%] | further results |
| --- | --- | --- | --- | --- |
| Cc1cc(N2CCC(c3ccccc3)C2)n2ncc(-c3ccccn3)c2n1 (single isomer, unassigned; enantiomer 1) [listing 1 of 2 here] | – | – | – | Emax [1]: 65% |
| Cc1cc(N2CCCC2c2cccnc2)n2ncc(-c3ccccn3)c2n1 (single isomer, unassigned; enantiomer 1) [listing 1 of 2 here] | > 27100 | 79 | – | – |
| Cc1cc(N2CCCC2c2cccnc2)n2ncc(-c3ccccn3)c2n1 (single isomer, unassigned; enantiomer 2) [listing 1 of 2 here] | – | – | 64 | – |
| Cn1cc(-c2ccc3nc(C(N)CCOCc4ccccc4)[nH]c(=O)c3c2)cn1 (stereo not drawn) | 641 | > 50000 | – | Emax [1]: 83% |
| CNc1nc(NCc2ccc(NS(C)(=O)=O)cc2Cl)cc(-c2ccccn2)n1 | > 27100 | 15 | 84 | Activity (SH-SY5Y [5]): Active; Activity (SH-SY5Y [6]): Toxic |
| Cc1cc(N2CCC(c3ccccc3)C2)n2ncc(-c3ccccn3)c2n1 (single isomer, unassigned; enantiomer 2) [listing 1 of 2 here] | – | – | – | Emax [1]: 54% |
| CNc1nc(NC2CCCCC2)cc(-c2ccccn2)n1 | > 27100 | 16 | 49 | – |
| N#Cc1ccc(N2CCN(Cc3cn4cc(Cl)ccc4n3)CC2)nc1 | – | 6250 | 48 | – |
| O=C(Cc1nn(CC2CCC2)c(=O)c2ccccc12)NCc1ccccn1 | 4040 | > 50000 | – | Emax [1]: 49% |
| CNc1nc(Oc2ccccc2)cc(-c2ccccn2)n1 | 23 | 481 | 58 | Emax [1]: 48% |
| Cc1cc(N2CCC(c3ccccc3)C2)n2ncc(-c3ccccn3)c2n1 (single isomer, unassigned; enantiomer 2) [listing 2 of 2 here] | 273 | – | – | EC50 ([3]; cho): > 10000 nM |
| Cc1cc(N2CCC(c3ccccc3)C2)n2ncc(-c3ccccn3)c2n1 (single isomer, unassigned; enantiomer 1) [listing 2 of 2 here] | 142 | > 10000 | – | – |
| NC(Cc1cnc[nH]1)c1nc2ccc(-c3ccccc3)cc2c(=O)[nH]1 (stereo not drawn) | 251 | > 50000 | – | Emax [1]: 102% |
| Cc1cc(N2CCCC2c2cccnc2)n2ncc(-c3ccccn3)c2n1 (single isomer, unassigned; enantiomer 1) [listing 2 of 2 here] | – | – | 58 | – |
| CNc1cc(-c2ccccn2)nc(NC2CCCCC2)n1 | 487 | > 31600 | – | Emax [1]: 88% |
| Cc1cc(N2CCCC2c2cccnc2)n2ncc(-c3ccccn3)c2n1 (single isomer, unassigned; enantiomer 2) [listing 2 of 2 here] | – | 240 | – | EC50 ([2]; cho): > 27100 nM |
| CNc1nc(NCc2ccccc2Cl)cc(-c2ccccn2)n1 | > 27100 | 3 | 86 | – |

Now from value to compound, other results behind:

| EC50 [2] [nM] | EC50 [3] [nM] | Emax [4, 7] [%] | SMILES | further results |
| --- | --- | --- | --- | --- |
| > 27100 | 17 | – | Cc1cc(NC(C)c2ccc(F)cc2)n2ncc(-c3ccccn3)c2n1 (single isomer, unassigned; enantiomer 1) [listing 1 of 2 here] | – |
| > 27100 | 78 | 75 | CNC(=O)C(Nc1cc(C)nc2c(-c3ccccn3)cnn12)c1ccc(F)cc1 (racemic) | – |
| – | – | 68 | Cc1cc(NC(C)c2ccc(F)cc2)n2ncc(-c3ccccn3)c2n1 (single isomer, unassigned; enantiomer 2) [listing 1 of 2 here] | Activity (SH-SY5Y [5]): Active |
| – | 26 | – | Cc1cc(NC(C)c2ccc(F)cc2)n2ncc(-c3ccccn3)c2n1 (single isomer, unassigned; enantiomer 2) [listing 2 of 2 here] | EC50 ([2]; cho): > 27100 nM; Activity (SH-SY5Y [6]): Toxic |
| > 27100 | 17 | – | Cc1cc(N2CCCC2c2ccccc2)n2ncc(-c3ccccn3)c2n1 (racemic) | Emax [4]: 36% |
| – | – | 51 | Cc1cc(NC(C)c2ccc(F)cc2)n2ncc(-c3ccccn3)c2n1 (single isomer, unassigned; enantiomer 1) [listing 2 of 2 here] | – |
| > 27100 | > 31600 | – | Cc1cc(N2C(=O)CCC2c2ccccc2)n2ncc(-c3ccccn3)c2n1 (racemic) | – |
| > 27100 | 15 | 57 | Cc1cc(NCc2ccc(F)cc2)n2ncc(-c3ccccn3)c2n1 | – |
| > 27100 | 63 | – | Cc1cc(NC(C)(C)c2ccc(F)cc2)n2ncc(-c3ccccn3)c2n1 | Emax [4]: 38% |
